What was measured:
EEF1A2 = target: T1, EEF1A2 (Homo sapiens, UniProt Q05639); assay: decryptC competitive reactive cysteine profiling in intact cells, LC-MS/MS; assay type: cell-based; details: covalent; C31; […] h incubation; range over MiaPaCa-2, NCI-H23 and ASPC1 cells
T1 sequence (Q05639 2-463): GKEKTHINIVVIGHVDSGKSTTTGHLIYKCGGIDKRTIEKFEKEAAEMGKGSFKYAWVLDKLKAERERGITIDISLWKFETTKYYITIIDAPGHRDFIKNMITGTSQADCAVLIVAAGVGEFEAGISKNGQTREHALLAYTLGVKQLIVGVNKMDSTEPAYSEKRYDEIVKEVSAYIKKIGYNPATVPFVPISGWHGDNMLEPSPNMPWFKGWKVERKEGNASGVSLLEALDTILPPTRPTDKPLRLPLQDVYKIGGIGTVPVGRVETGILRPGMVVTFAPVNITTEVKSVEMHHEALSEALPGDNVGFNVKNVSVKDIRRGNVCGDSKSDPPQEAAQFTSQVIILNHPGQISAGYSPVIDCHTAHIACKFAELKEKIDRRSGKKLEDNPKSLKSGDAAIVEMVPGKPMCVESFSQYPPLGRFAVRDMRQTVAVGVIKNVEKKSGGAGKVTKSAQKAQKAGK

AAK1 = AAK1 (Homo sapiens, UniProt Q2M2I8); assay: Kinobead selectivity profiling; assay type: biochemical; details: read-out: K ^app; apparent value; off-target of ERK inhibitor
GAK = target: T2, GAK (Homo sapiens, UniProt O14976); assay: Kinobead selectivity profiling; assay type: biochemical; details: read-out: K ^app; apparent value; off-target of ERK inhibitor
T2 sequence (O14976 2-1311): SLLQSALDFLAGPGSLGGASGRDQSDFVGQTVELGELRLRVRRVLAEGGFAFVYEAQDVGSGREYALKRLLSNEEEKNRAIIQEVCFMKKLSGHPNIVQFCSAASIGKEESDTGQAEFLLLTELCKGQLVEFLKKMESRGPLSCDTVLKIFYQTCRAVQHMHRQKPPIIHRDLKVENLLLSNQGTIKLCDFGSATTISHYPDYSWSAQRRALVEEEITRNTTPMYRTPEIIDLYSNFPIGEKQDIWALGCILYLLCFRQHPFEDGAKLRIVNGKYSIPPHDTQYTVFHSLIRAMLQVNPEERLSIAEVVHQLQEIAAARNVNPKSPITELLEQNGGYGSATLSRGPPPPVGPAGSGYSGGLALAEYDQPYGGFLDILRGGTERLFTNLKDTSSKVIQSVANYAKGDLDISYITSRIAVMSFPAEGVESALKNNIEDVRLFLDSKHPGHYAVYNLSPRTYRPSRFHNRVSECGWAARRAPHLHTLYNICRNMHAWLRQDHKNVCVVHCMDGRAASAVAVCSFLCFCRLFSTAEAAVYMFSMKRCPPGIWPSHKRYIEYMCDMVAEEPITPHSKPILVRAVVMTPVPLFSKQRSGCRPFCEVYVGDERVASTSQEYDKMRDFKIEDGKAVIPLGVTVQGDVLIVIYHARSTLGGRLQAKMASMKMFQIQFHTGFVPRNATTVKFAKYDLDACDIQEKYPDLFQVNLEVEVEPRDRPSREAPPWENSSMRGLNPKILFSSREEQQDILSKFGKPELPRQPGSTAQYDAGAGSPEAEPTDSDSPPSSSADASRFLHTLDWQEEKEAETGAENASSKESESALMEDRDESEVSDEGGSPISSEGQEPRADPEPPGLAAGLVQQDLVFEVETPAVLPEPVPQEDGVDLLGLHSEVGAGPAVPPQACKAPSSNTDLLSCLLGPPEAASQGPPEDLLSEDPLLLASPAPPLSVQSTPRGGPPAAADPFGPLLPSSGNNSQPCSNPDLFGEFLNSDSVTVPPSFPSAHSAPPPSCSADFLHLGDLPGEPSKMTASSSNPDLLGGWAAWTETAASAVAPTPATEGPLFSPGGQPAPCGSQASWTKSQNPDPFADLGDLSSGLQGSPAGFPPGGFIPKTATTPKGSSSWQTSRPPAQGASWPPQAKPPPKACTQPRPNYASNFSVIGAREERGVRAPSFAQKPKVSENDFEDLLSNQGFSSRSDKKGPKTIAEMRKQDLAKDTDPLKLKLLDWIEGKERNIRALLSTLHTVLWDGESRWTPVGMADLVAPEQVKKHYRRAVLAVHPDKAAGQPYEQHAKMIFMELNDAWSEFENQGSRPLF

Sequence of AAK1 (Q2M2I8 whole entry): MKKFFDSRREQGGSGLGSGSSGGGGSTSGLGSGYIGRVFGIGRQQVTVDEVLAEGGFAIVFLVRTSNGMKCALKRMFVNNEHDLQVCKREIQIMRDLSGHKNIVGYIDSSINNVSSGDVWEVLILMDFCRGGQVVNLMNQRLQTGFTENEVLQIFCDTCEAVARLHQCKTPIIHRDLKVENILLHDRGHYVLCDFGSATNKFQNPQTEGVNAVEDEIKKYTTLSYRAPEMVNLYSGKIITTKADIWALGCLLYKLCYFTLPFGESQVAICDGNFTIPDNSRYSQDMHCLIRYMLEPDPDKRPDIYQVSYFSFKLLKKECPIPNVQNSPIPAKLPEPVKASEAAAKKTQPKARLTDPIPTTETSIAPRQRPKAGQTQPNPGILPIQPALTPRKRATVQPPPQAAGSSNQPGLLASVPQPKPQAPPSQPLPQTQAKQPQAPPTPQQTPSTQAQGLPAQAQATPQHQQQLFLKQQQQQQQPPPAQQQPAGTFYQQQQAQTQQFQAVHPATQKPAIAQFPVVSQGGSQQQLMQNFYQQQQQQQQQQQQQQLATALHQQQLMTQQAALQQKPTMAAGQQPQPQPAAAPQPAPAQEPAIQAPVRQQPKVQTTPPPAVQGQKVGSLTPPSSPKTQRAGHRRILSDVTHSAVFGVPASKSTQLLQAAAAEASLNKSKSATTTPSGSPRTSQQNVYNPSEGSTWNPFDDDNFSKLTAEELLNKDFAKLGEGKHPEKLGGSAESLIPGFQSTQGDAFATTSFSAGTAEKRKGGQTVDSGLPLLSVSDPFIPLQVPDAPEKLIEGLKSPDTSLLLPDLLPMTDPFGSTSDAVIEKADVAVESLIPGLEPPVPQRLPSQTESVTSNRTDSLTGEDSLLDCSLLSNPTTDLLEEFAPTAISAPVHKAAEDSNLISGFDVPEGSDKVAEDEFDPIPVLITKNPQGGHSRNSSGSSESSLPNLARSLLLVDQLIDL

Compound	EC50 (EEF1A2)	Kd (AAK1)	Kd (GAK)
C=C(F)C(=O)N1CCN(c2nc(OC[C@@H]3CCCN3C)nc3c2CCN(c2cccc4cccc(Cl)c24)C3)C[C@@H]1CC#N [Adagrasib]	1000 to 3000 nM	–	–
Cn1nccc1Nc1nccc(-c2cc3c(s2)C(C)(C)N(CCN2CCOCC2)C3=O)n1 [Temuterkib]	–	11 nM	155 nM
